Results from ChEMBL document CHEMBL1128160, “An attempt to synthesize prostanoid thromboxane A2 antagonists with an additional prostacyclin like quality” (Bioorg Med Chem Lett, 1995).

Columns and labels:
[1] = target: T1, Thromboxane A2 receptor (Homo sapiens) (UniProt P21731); experiment: Competition factor for Thromboxane A2 receptor binding affinity CF = (IC50-test)/(IC50-standard)
T1 sequence (whole entry): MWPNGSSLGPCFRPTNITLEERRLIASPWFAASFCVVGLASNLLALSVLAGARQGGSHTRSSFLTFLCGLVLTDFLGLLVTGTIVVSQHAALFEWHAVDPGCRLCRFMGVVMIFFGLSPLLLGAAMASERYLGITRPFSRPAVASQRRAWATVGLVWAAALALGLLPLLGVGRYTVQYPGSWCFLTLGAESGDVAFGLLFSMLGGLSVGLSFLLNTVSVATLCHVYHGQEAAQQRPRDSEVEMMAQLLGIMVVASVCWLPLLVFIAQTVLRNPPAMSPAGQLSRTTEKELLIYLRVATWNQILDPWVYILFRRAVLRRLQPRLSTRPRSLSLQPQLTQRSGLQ

[2] = species on record: Homo sapiens; experiment: Inhibition of ADP-induced aggregation of human platelet rich plasma; assay type: functional
[3] = target: T1, Thromboxane A2 receptor (Homo sapiens); experiment: Competition factor was evaluated for Thromboxane A2 receptor binding affinity CF = (IC50-test)/(IC50-standard) by using [3H]iloprost agonist at 10 nM
[4] = target: T1, Thromboxane A2 receptor (Homo sapiens); experiment: Competition factor was evaluated for Thromboxane A2 receptor binding affinity CF = (IC50-test)/(IC50-standard)

Cc1ccc(S(=O)(=O)N[C@H]2CC/C(=N\OCC3CCCCC3)[C@@H]2C/C=C\CCCC(=O)O)cc1
CF [1]: 1 | IC50 [2]: 0.6 µM

O=C(O)CCC/C=C\C[C@@H]1[C@@H](NS(=O)(=O)c2ccc(Cl)cc2)CC[C@@H]1O
CF [1]: 0.68 | IC50 [2]: 0.19 µM

Cc1ccc(S(=O)(=O)N[C@H]2CC/C(=N\OCc3ccc(C(F)(F)F)cc3)[C@@H]2C/C=C\CCCC(=O)O)cc1
CF [1]: < 1 | IC50 [2]: 0.18 µM

Cc1ccc(S(=O)(=O)N[C@H]2CCC(=O)[C@@H]2C/C=C\CCCC(=O)O)cc1
CF [1]: 6.5 | IC50 [2]: 0.67 µM

O=C(O)CCC/C=C\C[C@H]1/C(=N/OCc2ccc(C(F)(F)F)cc2)CC[C@@H]1NS(=O)(=O)c1ccc(Cl)cc1
CF [1]: 0.07 | IC50 [2]: 0.2 µM

O=C(O)CCC/C=C\C[C@H]1C(=O)CC[C@@H]1NS(=O)(=O)c1ccc(F)cc1
CF [1]: 6.4 | IC50 [2]: 0.5 µM

Cc1ccc(S(=O)(=O)N[C@H]2CC/C(=N\OC(c3ccccc3)c3ccccc3)[C@@H]2C/C=C\CCCC(=O)O)cc1
CF [1]: 4.5 | IC50 [2]: 5.6 µM

C[C@@H]1CC/C(=N\OC(c2ccccc2)c2ccccc2)[C@H]1C/C=C\CCCC(=O)O
CF [3]: 25 | CF [1]: 175 | IC50 [2]: 0.8 µM

O=C(O)CCC/C=C\C[C@@H]1[C@@H](NS(=O)(=O)c2ccc(F)cc2)CC[C@@H]1O
CF [1]: 2.1 | IC50 [2]: 0.64 µM

O=C(O)CC/C=C\C[C@@H]1[C@@H](NS(=O)(=O)c2ccc(Cl)cc2)CC[C@@H]1O
CF [1]: 31 | IC50 [2]: 1.8 µM

O=C(O)CCC/C=C\C[C@@H]1[C@H](O)CC[C@H]1NS(=O)(=O)c1ccc(Cl)cc1
CF [1]: 85 | IC50 [2]: 2.2 µM

Cc1ccc(S(=O)(=O)N[C@H]2CC[C@H](O)[C@@H]2C/C=C\CCCC(=O)O)cc1
CF [1]: 7 | IC50 [2]: 0.5 µM

O=C(O)CCC/C=C\C[C@H]1/C(=N/OCC2CCCCC2)CC[C@@H]1NS(=O)(=O)c1ccc(Cl)cc1
IC50 [2]: 1.7 µM | CF [4]: 0.62

Cc1ccc(S(=O)(=O)N[C@H]2CC[C@H](O)[C@@H]2C/C=C\CCC(=O)O)cc1
CF [1]: 135 | IC50 [2]: 2.5 µM

O=C(O)CCC/C=C\C[C@H]1/C(=N/OC(c2ccccc2)c2ccccc2)CC[C@@H]1NS(=O)(=O)c1ccc(F)cc1
CF [1]: 6.9 | IC50 [2]: 17 µM

O=C(O)CCC/C=C\C[C@H]1/C(=N/OCC2CCCCC2)CC[C@@H]1NS(=O)(=O)c1ccc(F)cc1
CF [1]: 0.5 | IC50 [2]: 1.8 µM

O=C(O)CCC/C=C\C[C@@H]1[C@H](O)CC[C@H]1NS(=O)(=O)c1ccc(F)cc1
CF [1]: 26 | IC50 [2]: 6 µM

O=C(O)CC/C=C\C[C@@H]1[C@@H](NS(=O)(=O)c2ccc(F)cc2)CC[C@@H]1O
CF [1]: 200 | IC50 [2]: 1.6 µM

Cc1ccc(S(=O)(=O)N[C@@H]2CC[C@@H](O)[C@H]2C/C=C\CCCC(=O)O)cc1
CF [1]: 340 | IC50 [2]: 5.8 µM

O=C(O)CCC/C=C\C[C@H]1C(=O)CC[C@@H]1NS(=O)(=O)c1ccc(Cl)cc1
CF [1]: 2.6 | IC50 [2]: 0.64 µM

O=C(O)CCC/C=C\C[C@H]1/C(=N/OCc2ccc(C(F)(F)F)cc2)CC[C@@H]1NS(=O)(=O)c1ccc(F)cc1
CF [1]: 0.13 | IC50 [2]: 0.62 µM

O=C(O)CCC/C=C\C[C@H]1/C(=N/OC(c2ccccc2)c2ccccc2)CC[C@@H]1NS(=O)(=O)c1ccc(Cl)cc1
CF [1]: 4 | IC50 [2]: 17 µM
